Assay results from patent US6787535B2, “Indole derivatives with 5HT6 receptor affinity” (Syntex (U.S.A.) LLC, priority 2001, dated 2004).

Structure (SMILES)	melting point
O=S(=O)(c1ccc(C(F)(F)F)cc1)c1c[nH]c2ccc(N3CCNCC3)cc12 [compound 203, 5-piperazin-1-yl-3-(4-trifluoromethyl-benzenesulfonyl)-1H-indole]	274.9 to 280.9 °C
O=S(=O)(c1ccc(Cl)cc1)c1c[nH]c2ccc(N3CCNCC3)cc12 [compound 204, 3-(4-chloro-benzenesulfonyl)-5-piperazin-1-yl-1H-indole]	282 to 286.4 °C
O=S(=O)(c1cc(Cl)cc(Cl)c1)c1c[nH]c2ccc(N3CCNCC3)cc12 [compound 205, 3-(3,5-dichloro-benzenesulfonyl)-5-piperazin-1-yl-1H-indole]	> 300 °C
O=S(=O)(c1ccccc1Cl)c1c[nH]c2ccc(N3CCNCC3)cc12 [compound 206, 3-(2-chloro-benzenesulfonyl)-5-piperazin-1-yl-1H-indole]	> 300 °C
O=S(=O)(c1ccc(F)cc1)c1c[nH]c2ccc(N3CCNCC3)cc12 [compound 207, 3-(4-fluoro-benzenesulfonyl)-5-piperazin-1-yl-1H-indole]	289 to 291 °C
O=S(=O)(c1cccc(Cl)c1)c1c[nH]c2c(C3CCNCC3)cccc12 [compound 208, 3-(3-Chloro-benzenesulfonyl)-7-piperidin-4-yl-1H-indole]	272.3 to 272.9 °C
O=S(=O)(c1ccccc1)c1c[nH]c2c(C3CCNCC3)cccc12 [compound 301, 3-benzenesulfonyl-7-piperidin-4-yl-1H-indole]	186 to 189.5 °C
Cn1cc(S(=O)(=O)c2ccccn2)c2cccc(N3CCNCC3)c21 [compound 402, 1-methyl-7-piperazin-1-yl-3-(pyridine-2-sulfonyl)-1H-indole]	297 to 298 °C
Cn1cc(S(=O)(=O)c2ccccc2)c2cc(N3CCNCC3)ccc21 [compound 403, 3-benzenesulfonyl-1-methyl-5-piperazin-1-yl-1H-indole]	239 to 240 °C (dec.)
Cn1cc(S(=O)(=O)c2ccccc2C(F)(F)F)c2cccc(N3CCNCC3)c21 [compound 404, 1-methyl-7-piperazin-1-yl-3-(2-trifluoromethyl-benzenesulfonyl)-1H-indole]	295 °C
Cn1cc(S(=O)(=O)c2ccc(F)cc2)c2cccc(N3CCNCC3)c21 [compound 405, 3-(4-fluoro-benzenesulfonyl)-1-methyl-7-piperazin-1-yl-1H-indole]	300 °C
Cn1cc(S(=O)(=O)c2cccc(C(F)(F)F)c2)c2cccc(N3CCNCC3)c21 [compound 406, 1-methyl-7-piperazin-1-yl-3-(3-trifluoromethyl-benzenesulfonyl)-1H-indole]	279 to 280 °C
Cn1cc(S(=O)(=O)c2ccccc2Cl)c2cccc(N3CCNCC3)c21 [compound 407, 3-(2-chloro-benzenesulfonyl)-1-methyl-7-piperazin-1-yl-1H-indole]	295 to 297 °C
Cn1cc(S(=O)(=O)c2cccc(Cl)c2)c2cccc(N3CCNCC3)c21 [compound 408, 3-(3-chloro-benzenesulfonyl)-1-methyl-7-piperazin-1-yl-1H-indole]	300 °C
Cn1cc(S(=O)(=O)c2cccc(Cl)c2Cl)c2cc(N3CCNCC3)ccc21 [compound 409, 3-(2,3-dichloro-benzenesulfonyl)-1-methyl-5-piperazin-1-yl-1H-indole]	198 to 203 °C
Cn1cc(S(=O)(=O)c2cccc(C(F)(F)F)c2)c2cc(N3CCNCC3)ccc21 [compound 410, 1-methyl-5-piperazin-1-yl-3-(3-trifluoromethyl-benzenesulfonyl)-1H-indole]	235 to 240 °C
Cn1cc(S(=O)(=O)c2cc(Cl)cc(Cl)c2)c2cc(N3CCNCC3)ccc21 [compound 411, 3-(3,5-dichloro-benzenesulfonyl)-1-methyl-5-piperazin-1-yl-1H-indole]	282 to 284.5 °C
Cn1cc(S(=O)(=O)c2ccc(F)cc2)c2cc(N3CCNCC3)ccc21 [compound 413, 3-(4-fluoro-benzenesulfonyl)-1-methyl-5-piperazin-1-yl-1H-indole]	195 to 207 °C
Cn1cc(S(=O)(=O)c2ccccc2Cl)c2cc(N3CCNCC3)ccc21 [compound 414, 3-(2-chloro-benzenesulfonyl)-1-methyl-5-piperazin-1-yl-1H-indole]	249.6 to 253 °C
Cn1cc(S(=O)(=O)c2cccc(Cl)c2)c2cc(N3CCNCC3)ccc21 [compound 415, 3-(3-chloro-benzenesulfonyl)-1-methyl-5-piperazin-1-yl-1H-indole]	185.5 to 188.5 °C

Second part, the molecule after the results:

melting point	Structure (SMILES)
256.8 to 257.5 °C	Cn1cc(S(=O)(=O)c2ccccn2)c2cc(N3CCNCC3)ccc21 [compound 416, 1-methyl-5-piperazin-1-yl-3-(pyridine-2-sulfonyl)-1H-indole]
260 to 262 °C	CN1CCN(c2cccc3c(S(=O)(=O)c4ccccc4)cn(C)c23)CC1 [compound 502, 3-benzenesulfonyl-1-methyl-7-(4-methyl-piperazin-1-yl)-1H-indole]
196 to 203 °C	CN1CCN(c2cccc3c(S(=O)(=O)c4ccc(Cl)c(Cl)c4)c[nH]c23)CC1 [compound 503, 3-(3,4-dichloro-benzenesulfonyl)-7-(4-methyl-piperazin-1-yl)-1H-indole]
168.5 to 175.9 °C	CN1CCN(c2cccc3c(S(=O)(=O)c4ccccc4Cl)c[nH]c23)CC1 [compound 504, 3-(2-chloro-benzenesulfonyl)-7-(4-methyl-piperazin-1-yl)-1H-indole]
163 to 171 °C	CN1CCN(c2cccc3c(S(=O)(=O)c4cccc(Cl)c4)c[nH]c23)CC1 [compound 505, 3-(3-chloro-benzenesulfonyl)-7-(4-methyl-piperazin-1-yl)-1H-indole]
199 to 203 °C	CN1CCN(c2cccc3c(S(=O)(=O)c4ccc(Cl)cc4Cl)c[nH]c23)CC1 [compound 506, 3-(2,4-dichloro-benzenesulfonyl)-7-(4-methyl-piperazin-1-yl)-1H-indole]
237.1 to 241.5 °C	CN1CCN(c2cccc3c(S(=O)(=O)c4cc(Cl)cc(Cl)c4)c[nH]c23)CC1 [compound 507, 3-(3,5-dichloro-benzenesulfonyl)-7-(4-methyl-piperazin-1-yl)-1H-indole]
237.1 to 241.5 °C	CN1CCN(c2cccc3c(S(=O)(=O)c4ccccc4C(F)(F)F)c[nH]c23)CC1 [compound 508, 7-(4-methyl-piperazin-1-yl)-3-(2-trifluoromethyl-benzenesulfonyl)-1H-indole]
178 to 182 °C	CN1CCC(c2cccc3c(S(=O)(=O)c4ccc(F)cc4)c[nH]c23)CC1 [compound 510, 3-(4-fluoro-benzenesulfonyl)-7-(1-methyl-piperidin-4-yl)-1H-indole]
280 to 282 °C	O=S(=O)(c1ccccc1)c1c[nH]c2c(N3CCN(CC4CC4)CC3)cccc12 [compound 511, 3-benzenesulfonyl-7-(4-cyclopropylmethyl-piperazin-1-yl)-1H-indole]
290 to 295 °C	CCCN1CCN(c2cccc3c(S(=O)(=O)c4ccccc4)c[nH]c23)CC1 [compound 512, 3-benzenesulfonyl-7-(4-propyl-piperazin-1-yl)-1H-indole]
274 to 275 °C	CCN1CCN(c2cccc3c(S(=O)(=O)c4ccccc4)c[nH]c23)CC1 [compound 513, 3-benzenesulfonyl-7-(4-ethyl-piperazin-1-yl)-1H-indole]
188 to 190 °C	Cc1[nH]c2c(N3CCNCC3)cccc2c1S(=O)(=O)c1ccccc1 [compound 601, 3-benzenesulfonyl-2-methyl-7-piperazin-1-yl-1H-indole]
118 to 120 °C	Cc1[nH]c2c(N3CCNCC3)cccc2c1S(=O)(=O)c1ccc(Cl)cc1 [compound 602, 3-(4-chlorobenzenesulfonyl)-2-methyl-7-piperazin-1-yl-1H-indole]
232 to 236 °C	Cc1[nH]c2c(N3CCNCC3)cccc2c1S(=O)(=O)c1ccc(F)cc1 [compound 603, 3-(4-fluorobenzenesulfonyl)-2-methyl-7-piperazin-1-yl-1H-indole]
182 to 184 °C	COc1ccc(S(=O)(=O)c2c(C)[nH]c3c(N4CCNCC4)cccc23)cc1 [compound 604, 3-(4-methoxybenzenesulfonyl)-2-methyl-7-piperazin-1-yl-1H-indole]
